Results published in patent US12168763B2, “Microorganisms and methods for reducing bacterial contamination” (Melio Peptide Systems Inc., priority 2020, dated 2024).

Experiments:
Pediococcus acidilactici = assay: Soft-agar overlay screen of peptide-expressing yeast, other lactic acid bacteria; assay type: cell-based
Lactobacillus brevis = assay: as above; assay type: cell-based
Lactobacillus plantarum = assay: as above; assay type: cell-based
[1] = system: L. delbrueckii CCUG 34222; assay: Soft-agar overlay screen of peptide-expressing yeast (BY4742)
E. faecium NCCB 86023 = assay: as above
[2] = system: Lactococcus lactis subsp. cremoris; assay: Soft-agar overlay screen of peptide-expressing yeast, other lactic acid bacteria; assay type: cell-based
W. confusa CCUG30113 = assay: Soft-agar overlay screen of peptide-expressing yeast (BY4742)
W. confusa CCUG30943 = assay: as above
Pediococcus damnosus = assay: Soft-agar overlay screen of peptide-expressing yeast, other lactic acid bacteria; assay type: cell-based
Lactobacillus amylovorus = assay: as above; assay type: cell-based; conditions: sometimes weak
Lactobacillus casei = assay: as above; assay type: cell-based; conditions: sometimes weak
L. reuteri CCUG 32624 = assay: Soft-agar overlay screen of peptide-expressing yeast (BY4742)
[3] = system: Lactobacillus delbrueckii subsp. delbrueckii; assay: Soft-agar overlay screen of peptide-expressing yeast, other lactic acid bacteria; assay type: cell-based
[4] = system: Leuconostoc mesenteroides subsp. mesenteroides; assay: as above; assay type: cell-based
[5] = system: P. pentosaceus NCCB 31016; assay: Soft-agar overlay screen of peptide-expressing yeast (BY4742)
L. lactis NCCB 26066 = assay: as above
P. pentosaceus = assay: Small-scale mock ethanol fermentation contaminated with P. pentosaceus; assay type: cell-based, Pediococcus pentosaceus; conditions: 72 hours; contamination OD600 0.00005-0.05; virginiamycin 2 mg/L
Protocol: (§1) Small-scale mock ethanol fermentations were carried out in 2 mL microcentrifuge tubes with a venting hole in the cap made with a 30 gauge needle. Starter cultures of yeast were grown in YPD at 30° C. with agitation. Starter cultures of L. fermentum CCUG 72619 were grown in MRS at 37° C. without agitation. […] . Control fermentations contained 2 mg/L virginiamycin. The fermentations were incubated at 30° C. without agitation for 72 hours and then analyzed by HPLC.
(§2) . M2 wild-type with and without virginiamycin, M2-pPedA, M2-pPedA-K1A, M2-pPedA-K1A/T22A, and M2-pPedA-K1T were compared (FIGS. 14A-14D, 15A-15D). […] . The pediocin-expressing strains were not effective at completely preventing the lactic acid production by L. delbrueckii or P. pentosaceus. […] .

L. delbrueckii = assay: Small-scale mock ethanol fermentation contaminated with L. delbrueckii; assay type: cell-based, Lactobacillus delbrueckii; conditions: 72 hours; contamination OD600 0.00005-0.05; virginiamycin 2 mg/L
Protocol: as §1, §2

L. fermentum CCUG 72619 = assay type: cell-based, Lactobacillus fermentum

| Substance | Antibacterial activity against Pediococcus acidilactici (Pediococcus acidilactici) | Antibacterial activity against Lactobacillus brevis (Lactobacillus brevis) | Antibacterial activity against Lactobacillus plantarum (Lactobacillus plantarum) | Inhibition, L. delbrueckii CCUG 34222 [1] | Inhibition, E. faecium NCCB 86023 (E. faecium NCCB 86023) | Antibacterial activity against Lactococcus lactis subsp. cremoris [2] | Inhibition, W. confusa CCUG30113 (W. confusa CCUG30113) | Inhibition, W. confusa CCUG30943 (W. confusa CCUG30943) | Antibacterial activity against Pediococcus damnosus (Pediococcus damnosus) | Antibacterial activity against Lactobacillus amylovorus (Lactobacillus amylovorus) | Antibacterial activity against Lactobacillus casei (Lactobacillus casei) | Inhibition, L. reuteri CCUG 32624 (L. reuteri CCUG 32624) | Antibacterial activity against Lactobacillus delbrueckii subsp. delbrueckii [3] | Antibacterial activity against Leuconostoc mesenteroides subsp. mesenteroides [4] | Growth inhibition zones of P. pentosaceus ([5]; FIG. 7, BY4742 with pHVXU-pedA, 30° C., 1 day) | Inhibition, P. pentosaceus NCCB 31016 ([5]; soft-agar overlay, peptide-expressing yeast) | Inhibition, L. lactis NCCB 26066 (L. lactis NCCB 26066) | Lactic acid production by P. pentosaceus (P. pentosaceus) | Lactic acid production by L. delbrueckii (L. delbrueckii) | Variability in residual glucose (L. fermentum CCUG 72619) |
| --- | --- | --- | --- | --- | --- | --- | --- | --- | --- | --- | --- | --- | --- | --- | --- | --- | --- | --- | --- | --- |
| Pediocin PA-1 from [Pediococcus acidilactici] (KYYGNGVTCGKHSCSVDWGKATTCIINNGAMAWATGGHQGNHKC; listed as Pediococcus acidilactici) | showed antibacterial activity | showed antibacterial activity | showed antibacterial activity | + | + | showed antibacterial activity | − | − | showed antibacterial activity | showed some antibacterial activity | showed some antibacterial activity | − | showed antibacterial activity | showed antibacterial activity | Growth inhibition zones of P. pentosaceus are observable | + | + |  |  |  |
| virginiamycin |  |  |  |  |  |  |  |  |  |  |  |  |  |  |  |  |  | effective at preventing the lactic acid production | effective at preventing the lactic acid production | tended to be reduced |
